Our source for the AC50, EC50 and IC50 values is ChEMBL document CHEMBL1201862, “PubChem BioAssay data set” (2004).

SMILES strings stand for the structures. The source made the active and inactive calls.

Assay [1] has as its system INS1. Put plainly: INS-1E mitochondrial potential rescue under cytokines – cell-based, JC-1 fluorescence ratio, dry powder, dose response (AID 488931). The format is functional. The settings on record: Rattus norvegicus.
Assay [2] deals with INS1. Put plainly: INS-1E mitochondrial potential loss inhibitors – cell-based, JC-1 fluorescence, dry powder, set 2, dose response (AID 488867). The format is functional. The settings on record: Rattus norvegicus.
For assay [3], the system named is INS1. The assay can be described thus: beta-cell survival under cytokine stress – INS-1E, ATP luminescence, dry powder, dose response (AID 488844). The note with it: Rattus norvegicus. The format is functional, cell-based.
The target in assay [4] is Peroxisome proliferator-activated receptor gamma/Nuclear receptor coactivator 1 (Homo sapiens, UniProt P37231). The format is functional.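 Also: agonist potency as compounds enhance coactivator SRC-1 recruitment to PPARgamma.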
Assay [5] concerns the target Peroxisome proliferator-activated receptor gamma/Nuclear receptor coactivator 3 (Homo sapiens, UniProt P37231). The format is functional.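 Also: agonist potency for raising coactivator recruitment to the receptor.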
Assay [6] concerns the target Beta-2 adrenergic receptor (Homo sapiens, UniProt P07550). The assay can be described thus: ADRB2 activation measured by internalization – cell-based, FAP fluorogen, flow cytometry, cherry pick 1, dose response (AID 588763). The format is functional. (In general: A flow cytometer gives signals particle by particle.)
Assay [7] concerns the target Peroxisome proliferator-activated receptor gamma/Nuclear receptor coactivator 2 (Homo sapiens, UniProt P37231). The format is functional.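 Also: agonist potency for raising coactivator recruitment to the receptor.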
For another assay, the target named is Beta Lactamase (Pseudomonas aeruginosa, UniProt Q932Y6). Put plainly: BLA reporter interference, concentration series – BLA reporter cells, FRET fluorescence, artefact control for TLR9-MyD88 binding inhibitor project, dose response (AID 588341).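 Also: cell based assay in CHO-K1 cells stably expressing beta-lactamase.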 In kind it is cell-based.
Assay [8] concerns the target T1, Sphingosine 1-phosphate receptor 4 (Homo sapiens, UniProt O95977).
T1 sequence (O95977 whole entry): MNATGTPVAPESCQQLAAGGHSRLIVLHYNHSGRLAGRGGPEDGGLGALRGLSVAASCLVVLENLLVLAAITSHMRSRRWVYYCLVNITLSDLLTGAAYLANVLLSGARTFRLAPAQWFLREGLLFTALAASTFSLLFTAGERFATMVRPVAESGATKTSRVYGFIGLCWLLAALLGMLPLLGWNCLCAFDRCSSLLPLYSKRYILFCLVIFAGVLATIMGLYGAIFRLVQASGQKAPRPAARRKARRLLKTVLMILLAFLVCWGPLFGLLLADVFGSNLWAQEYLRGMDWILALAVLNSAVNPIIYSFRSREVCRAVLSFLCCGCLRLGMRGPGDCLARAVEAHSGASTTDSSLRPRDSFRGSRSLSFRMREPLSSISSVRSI
Put plainly: Fluorescence dose response cell-based high throughput screening assay for antagonists of the Sphingosine 1-Phosphate Receptor 4 (S1P4). [Related pubchem assays: 1524 (Confirmation in triplicates.), 1510 (Primary screen.)]. The format is functional.

Assay [9] concerns the target T2, Replicative DNA helicase DnaB (Mycobacterium tuberculosis, UniProt P9WMR3).
T2 sequence (P9WMR3 whole entry): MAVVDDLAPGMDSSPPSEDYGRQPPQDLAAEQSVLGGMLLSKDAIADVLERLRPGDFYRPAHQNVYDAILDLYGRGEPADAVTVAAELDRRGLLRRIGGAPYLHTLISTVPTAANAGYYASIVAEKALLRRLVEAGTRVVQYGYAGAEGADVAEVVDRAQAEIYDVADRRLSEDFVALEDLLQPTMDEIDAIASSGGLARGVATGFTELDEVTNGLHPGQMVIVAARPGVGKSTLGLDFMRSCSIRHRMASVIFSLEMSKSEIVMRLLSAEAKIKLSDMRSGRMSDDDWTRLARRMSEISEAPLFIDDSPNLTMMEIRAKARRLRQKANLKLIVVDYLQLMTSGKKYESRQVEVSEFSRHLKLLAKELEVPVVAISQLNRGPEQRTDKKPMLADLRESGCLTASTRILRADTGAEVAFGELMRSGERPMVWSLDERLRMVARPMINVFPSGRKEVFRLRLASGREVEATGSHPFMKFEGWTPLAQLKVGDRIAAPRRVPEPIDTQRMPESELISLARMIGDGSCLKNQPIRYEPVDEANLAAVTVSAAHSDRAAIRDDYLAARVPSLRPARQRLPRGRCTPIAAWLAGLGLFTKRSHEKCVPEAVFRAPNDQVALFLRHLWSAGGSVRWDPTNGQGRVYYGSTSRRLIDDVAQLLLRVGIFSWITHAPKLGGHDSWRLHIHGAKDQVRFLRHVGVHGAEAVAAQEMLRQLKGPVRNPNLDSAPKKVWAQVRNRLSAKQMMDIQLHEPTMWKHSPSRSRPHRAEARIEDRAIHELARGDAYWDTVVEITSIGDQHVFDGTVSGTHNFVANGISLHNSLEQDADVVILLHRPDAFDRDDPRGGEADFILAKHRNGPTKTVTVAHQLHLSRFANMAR
The assay can be described thus: DnaB intein splicing inhibitors, dose response, biochemical, cell-free fluorescence (AID 449749). The format is functional.

Another assay concerns CHO. Put plainly: CHO cell viability loss, potency – luminescence, cytotoxicity control for TLR9-MyD88 binding inhibitor project, dose response (AID 588339).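 Also: CHO cells stably coexpressing TLR9 and MyD88 fusions from primary screen; compound exposure lasted 48 hours before viability readout.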 The format is functional, cell-based, hamster. The settings on record: Cricetulus griseus.
Assay [10] is described as follows: non-specific 3'UTR reporter inhibition in Clone20-Shn3RL – cell-based, Renilla luciferase, cherry-picked, counter-screen for Shn3 inhibitor project, dose response (AID 624133). In kind it is functional. In general terms: The purpose of a counterscreen is to sort out artefacts and off-target activity.
Assay [11] in a line: HEK-293T viability loss after treatment – luminescence, T-cell screen hits, cytotoxicity control for TCR NF-kB inhibitor project, dose response (AID 489026).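 Also: cells exposed to compound about 14 hours before the viability readout.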 The format is functional, cell-based.
Assay [12] concerns the target Sphingosine 1-phosphate receptor 1 (Homo sapiens, UniProt P21453). The format is functional.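 Also: Tango beta-arrestin reporter U2OS cells stimulated with S1P near its EC80; inhibitor potency meaning antagonism of receptor activation by the natural agonist.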
In assay [13] the target is Sphingosine 1-phosphate receptor 2 (Homo sapiens, UniProt O95136). Put plainly: Dose Response Cell Based Assay for Antagonists of the S1P2 Receptor. [Related pubchem assays: 856, 736 ]. The format is functional.
Chain of Sphingosine 1-phosphate receptor 2 (O95136 whole entry): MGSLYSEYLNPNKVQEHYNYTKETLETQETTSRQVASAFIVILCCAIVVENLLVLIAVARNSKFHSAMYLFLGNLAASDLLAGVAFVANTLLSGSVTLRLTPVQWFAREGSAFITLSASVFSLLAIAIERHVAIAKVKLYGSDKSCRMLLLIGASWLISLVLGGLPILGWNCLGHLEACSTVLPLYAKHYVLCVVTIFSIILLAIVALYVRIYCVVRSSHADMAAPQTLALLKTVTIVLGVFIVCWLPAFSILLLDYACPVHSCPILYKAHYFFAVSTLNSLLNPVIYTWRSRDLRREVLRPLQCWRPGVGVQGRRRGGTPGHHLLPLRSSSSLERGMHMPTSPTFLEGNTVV
A short description of assay [14]: loss of viability in HepG2 cells – cell-based, CellTiter-Glo, cherry-picked, cytotoxicity control for Shn3 inhibitor project, dose response (AID 624134). In kind it is functional. (Cellular ATP, detected with luciferase, serves as a proxy for viable cell number.)
In a further assay the target is T3, Protein RecA (Mycobacterium tuberculosis, UniProt P9WHJ3).
T3 sequence (P9WHJ3 whole entry): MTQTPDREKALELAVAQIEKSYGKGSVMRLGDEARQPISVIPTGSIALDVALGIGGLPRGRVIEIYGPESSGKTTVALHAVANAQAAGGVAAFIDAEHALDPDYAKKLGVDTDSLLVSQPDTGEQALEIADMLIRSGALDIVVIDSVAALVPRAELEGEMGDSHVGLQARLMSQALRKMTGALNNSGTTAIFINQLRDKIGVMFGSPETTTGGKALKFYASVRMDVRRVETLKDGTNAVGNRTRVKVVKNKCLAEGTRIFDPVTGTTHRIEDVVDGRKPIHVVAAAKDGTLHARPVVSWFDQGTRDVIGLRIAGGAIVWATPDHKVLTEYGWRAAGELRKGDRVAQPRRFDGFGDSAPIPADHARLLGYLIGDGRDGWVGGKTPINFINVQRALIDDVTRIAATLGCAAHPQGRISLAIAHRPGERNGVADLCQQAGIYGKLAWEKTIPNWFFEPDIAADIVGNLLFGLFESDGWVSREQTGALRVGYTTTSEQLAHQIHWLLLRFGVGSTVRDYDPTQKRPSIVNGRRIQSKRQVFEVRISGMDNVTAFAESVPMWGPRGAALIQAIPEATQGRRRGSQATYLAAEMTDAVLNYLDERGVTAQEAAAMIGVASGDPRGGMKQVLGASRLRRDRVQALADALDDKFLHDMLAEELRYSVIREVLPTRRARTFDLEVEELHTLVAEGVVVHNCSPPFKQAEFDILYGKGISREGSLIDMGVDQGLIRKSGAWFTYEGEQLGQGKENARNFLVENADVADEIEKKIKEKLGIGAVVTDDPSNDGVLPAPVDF
The assay can be described thus: Fluorescence Cell-Free Homogeneous Dose Retest to Identify Inhibitors of RecA-Intein Splicing Activity. [Related pubchem assays (depositor defined):AID2097, AID2223, AID489010, AID492950]. The format is functional.

Assay [15] in a line: reduction of Shn3 3'UTR-driven luciferase in osteoblasts – cell-based, Clone20 osteoblasts, firefly luciferase, cherry-picked, dose response (AID 624132).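 Also: firefly luciferase luminescence from reporter carrying the Shn3 3'UTR in osteoblasts.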 The format is functional.

Chain of Beta-2 adrenergic receptor (P07550 whole entry): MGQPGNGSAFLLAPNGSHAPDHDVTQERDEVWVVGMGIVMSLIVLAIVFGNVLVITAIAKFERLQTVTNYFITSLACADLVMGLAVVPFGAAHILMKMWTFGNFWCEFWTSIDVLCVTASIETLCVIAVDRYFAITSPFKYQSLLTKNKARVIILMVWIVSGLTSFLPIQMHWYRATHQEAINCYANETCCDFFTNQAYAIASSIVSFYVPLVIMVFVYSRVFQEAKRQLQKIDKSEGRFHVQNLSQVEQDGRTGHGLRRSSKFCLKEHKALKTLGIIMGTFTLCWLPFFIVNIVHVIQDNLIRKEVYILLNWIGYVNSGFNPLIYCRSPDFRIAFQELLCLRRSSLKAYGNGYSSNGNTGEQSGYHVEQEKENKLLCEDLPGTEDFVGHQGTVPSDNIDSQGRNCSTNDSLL
Chain of Peroxisome proliferator-activated receptor gamma/Nuclear receptor coactivator 3 (P37231 whole entry): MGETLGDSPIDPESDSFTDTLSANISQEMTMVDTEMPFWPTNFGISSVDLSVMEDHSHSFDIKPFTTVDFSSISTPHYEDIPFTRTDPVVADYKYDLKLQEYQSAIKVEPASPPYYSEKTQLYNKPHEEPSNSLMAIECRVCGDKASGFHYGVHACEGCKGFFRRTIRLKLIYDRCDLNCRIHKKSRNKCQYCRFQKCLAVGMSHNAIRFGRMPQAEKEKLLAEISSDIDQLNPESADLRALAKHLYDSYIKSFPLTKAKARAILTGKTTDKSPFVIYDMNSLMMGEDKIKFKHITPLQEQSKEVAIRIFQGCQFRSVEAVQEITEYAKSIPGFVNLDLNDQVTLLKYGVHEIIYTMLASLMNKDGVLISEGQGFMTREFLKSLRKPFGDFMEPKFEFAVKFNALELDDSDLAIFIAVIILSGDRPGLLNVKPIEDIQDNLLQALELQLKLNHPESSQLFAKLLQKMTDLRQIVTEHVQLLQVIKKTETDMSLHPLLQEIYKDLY
Chain of Peroxisome proliferator-activated receptor gamma/Nuclear receptor coactivator 3 (Q9Y6Q9 whole entry, further chain): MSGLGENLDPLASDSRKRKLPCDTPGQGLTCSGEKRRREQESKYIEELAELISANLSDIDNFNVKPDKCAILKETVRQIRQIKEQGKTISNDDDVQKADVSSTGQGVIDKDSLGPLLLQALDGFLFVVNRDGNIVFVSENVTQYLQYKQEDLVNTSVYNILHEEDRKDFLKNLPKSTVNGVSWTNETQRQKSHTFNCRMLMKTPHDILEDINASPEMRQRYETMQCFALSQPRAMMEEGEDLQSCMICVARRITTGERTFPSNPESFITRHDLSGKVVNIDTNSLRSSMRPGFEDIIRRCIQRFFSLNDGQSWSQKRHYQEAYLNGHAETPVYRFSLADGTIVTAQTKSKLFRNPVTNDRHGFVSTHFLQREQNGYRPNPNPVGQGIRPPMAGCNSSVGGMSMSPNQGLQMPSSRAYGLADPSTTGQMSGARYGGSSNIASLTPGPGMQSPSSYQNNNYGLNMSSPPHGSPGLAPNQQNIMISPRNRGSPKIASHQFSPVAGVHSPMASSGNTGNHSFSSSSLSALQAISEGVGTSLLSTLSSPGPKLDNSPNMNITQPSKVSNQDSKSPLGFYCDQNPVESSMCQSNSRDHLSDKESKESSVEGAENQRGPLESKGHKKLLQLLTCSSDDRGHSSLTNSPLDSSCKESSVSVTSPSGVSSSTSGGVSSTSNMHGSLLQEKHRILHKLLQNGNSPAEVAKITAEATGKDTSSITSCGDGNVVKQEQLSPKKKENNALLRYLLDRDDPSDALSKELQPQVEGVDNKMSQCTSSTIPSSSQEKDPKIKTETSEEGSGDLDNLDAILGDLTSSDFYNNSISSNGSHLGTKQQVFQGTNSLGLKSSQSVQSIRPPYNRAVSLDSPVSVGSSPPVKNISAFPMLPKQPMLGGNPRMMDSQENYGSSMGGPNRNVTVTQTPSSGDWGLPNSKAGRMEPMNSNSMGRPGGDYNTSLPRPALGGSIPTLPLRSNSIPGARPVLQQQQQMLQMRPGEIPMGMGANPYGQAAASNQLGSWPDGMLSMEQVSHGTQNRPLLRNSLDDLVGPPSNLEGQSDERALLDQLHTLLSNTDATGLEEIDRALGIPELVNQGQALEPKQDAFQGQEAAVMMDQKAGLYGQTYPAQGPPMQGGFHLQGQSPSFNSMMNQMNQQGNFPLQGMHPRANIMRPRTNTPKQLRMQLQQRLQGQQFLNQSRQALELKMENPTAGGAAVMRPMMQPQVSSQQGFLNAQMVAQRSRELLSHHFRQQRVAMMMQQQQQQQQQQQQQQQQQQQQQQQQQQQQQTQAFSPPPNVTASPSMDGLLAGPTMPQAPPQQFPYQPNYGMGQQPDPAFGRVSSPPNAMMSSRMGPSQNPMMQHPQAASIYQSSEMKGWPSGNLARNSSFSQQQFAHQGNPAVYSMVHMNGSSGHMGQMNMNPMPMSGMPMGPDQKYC
Chain of Peroxisome proliferator-activated receptor gamma/Nuclear receptor coactivator 2 (P37231 whole entry): as the sequence (P37231 whole entry) above
Chain of Peroxisome proliferator-activated receptor gamma/Nuclear receptor coactivator 2 (Q15596 whole entry, further chain): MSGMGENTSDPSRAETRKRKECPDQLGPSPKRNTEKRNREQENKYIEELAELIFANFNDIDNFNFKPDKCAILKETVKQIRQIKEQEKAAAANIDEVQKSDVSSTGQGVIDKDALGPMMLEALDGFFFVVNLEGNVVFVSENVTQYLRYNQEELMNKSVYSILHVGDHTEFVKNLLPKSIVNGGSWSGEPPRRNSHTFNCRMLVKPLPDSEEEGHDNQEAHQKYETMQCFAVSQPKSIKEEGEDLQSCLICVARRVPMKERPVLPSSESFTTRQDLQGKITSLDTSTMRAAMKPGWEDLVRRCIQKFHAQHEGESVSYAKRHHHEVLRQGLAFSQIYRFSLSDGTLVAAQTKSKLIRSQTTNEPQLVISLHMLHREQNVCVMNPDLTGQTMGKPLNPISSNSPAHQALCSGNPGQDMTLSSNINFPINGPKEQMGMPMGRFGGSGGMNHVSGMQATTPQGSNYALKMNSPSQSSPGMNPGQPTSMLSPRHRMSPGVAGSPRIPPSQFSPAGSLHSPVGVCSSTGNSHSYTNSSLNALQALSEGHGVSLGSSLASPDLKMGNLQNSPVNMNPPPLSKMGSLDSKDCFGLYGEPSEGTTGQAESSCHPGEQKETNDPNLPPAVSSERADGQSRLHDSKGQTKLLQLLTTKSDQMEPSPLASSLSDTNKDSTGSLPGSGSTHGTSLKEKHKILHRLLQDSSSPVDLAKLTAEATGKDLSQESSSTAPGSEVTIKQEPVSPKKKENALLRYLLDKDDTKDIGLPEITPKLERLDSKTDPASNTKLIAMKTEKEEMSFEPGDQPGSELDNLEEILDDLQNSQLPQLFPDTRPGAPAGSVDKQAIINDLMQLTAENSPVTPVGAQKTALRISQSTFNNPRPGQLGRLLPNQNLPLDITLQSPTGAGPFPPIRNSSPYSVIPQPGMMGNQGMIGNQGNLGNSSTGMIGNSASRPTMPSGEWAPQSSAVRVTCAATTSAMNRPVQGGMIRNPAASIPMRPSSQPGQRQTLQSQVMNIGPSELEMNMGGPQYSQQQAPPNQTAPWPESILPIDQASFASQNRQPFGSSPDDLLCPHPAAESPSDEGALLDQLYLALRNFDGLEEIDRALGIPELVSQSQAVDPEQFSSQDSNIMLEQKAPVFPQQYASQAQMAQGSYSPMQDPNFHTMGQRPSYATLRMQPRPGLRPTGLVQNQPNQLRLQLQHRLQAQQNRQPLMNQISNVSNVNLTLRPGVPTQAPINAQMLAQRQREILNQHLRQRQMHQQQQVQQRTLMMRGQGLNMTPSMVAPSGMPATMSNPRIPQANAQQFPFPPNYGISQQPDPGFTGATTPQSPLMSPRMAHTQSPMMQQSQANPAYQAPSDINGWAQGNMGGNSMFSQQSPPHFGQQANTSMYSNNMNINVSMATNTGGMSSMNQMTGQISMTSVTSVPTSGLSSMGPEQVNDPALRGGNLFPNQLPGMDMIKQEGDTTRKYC
Chain of Sphingosine 1-phosphate receptor 1 (P21453 whole entry): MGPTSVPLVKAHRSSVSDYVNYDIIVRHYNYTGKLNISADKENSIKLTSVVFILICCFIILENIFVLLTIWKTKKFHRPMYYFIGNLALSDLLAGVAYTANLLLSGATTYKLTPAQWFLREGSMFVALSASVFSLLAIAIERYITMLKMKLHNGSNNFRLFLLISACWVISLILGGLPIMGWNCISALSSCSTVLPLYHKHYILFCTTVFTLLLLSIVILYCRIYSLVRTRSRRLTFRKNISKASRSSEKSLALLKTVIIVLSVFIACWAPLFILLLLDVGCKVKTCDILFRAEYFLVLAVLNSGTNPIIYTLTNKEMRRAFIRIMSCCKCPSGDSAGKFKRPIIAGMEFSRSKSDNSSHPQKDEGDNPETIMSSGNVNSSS

In general, AC50 refers to the concentration at which the activity in the assay is half-maximal. As to `COc1ccc(S(=O)(=O)N(C)C[C@H]2Oc3c(NC(=O)Nc4cccc5ccccc45)cccc3C(=O)N([C@@H](C)CO)C[C@@H]2C)cc1`, the AC50 is 104 µM (active) in the assay on INS1 [1], > 260 µM (inactive) in the assay with INS1 [2] and 85 µM (active) in the assay with INS1 [3].

For orientation: EC50 means the concentration at which the effect is half-maximal. As to `Cc1cc(C)n(-c2nc(SCC(=O)Nc3nccs3)c3c4c(sc3n2)COC(C)(C)C4)n1`, the EC50 in [4] is > 79.4 µM (not active); in assay [5], > 79.4 µM (not active); in assay [6], 8.85 µM (inactive); in assay [7], > 79.4 µM (not active).

For orientation: IC50 means the midpoint of a concentration-inhibition curve. For `COc1ccc(CS(=O)(=O)/C(Cl)=C(/Cl)C(=O)Nc2ccc(OC)nc2)cc1`, the IC50 was > 49.7 µM (inactive) at Beta Lactamase; 0.852 µM (active) in assay [8]; 2.03 µM (active) with CHO; 27.9 µM (inactive) in [11]; 6.21 µM (active) in assay [12]; 1.67 µM (active) in [13]. For the same molecule, the concentration at half-maximal activity (AC50) is 3.88 µM (active) in [9], 6.84 µM (active) in assay [10], 10.6 µM (active) in assay [14] and < 0.26 µM (active) in assay [15]. Further, on Protein RecA, the EC50 is 3.34 µM (active).
